According to the supplement of paper PMC10883282:

Tests used:
Assay in all cases: relative viability vs DMSO control (72 h) (fraction); higher = more viable cells
SYO-1 = system: SYO-1
Summary of the method: (§1)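 Sarcoma cell lines in 384-well plates, seeded to reach 80–90% confluence, were given compound after 24 h and kept 72 h at 37 °C, 5% CO2, with 0.1% DMSO vehicle and a 5 µM positive control. Relative viability came from ATPLite as percent growth, averaged over up to triplicate wells. On the rescaled values, 1 equals full and 0 equals none.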

HT1080 = system: HT1080
Summary of the method: as §1

KHOS-NP = system: KHOS-NP
Summary of the method: as §1

VA-ES-BJ = system: VA-ES-BJ
Summary of the method: as §1

SK-LMS-1 = system: SK-LMS-1
Summary of the method: as §1

A204 = system: A204
Summary of the method: as §1

HS729 = system: HS729
Summary of the method: as §1

SW684 = system: SW684
Summary of the method: as §1

SW872 = system: SW872
Summary of the method: as §1

SW1353 = system: SW1353
Summary of the method: as §1

MES-SA = system: MES-SA
Summary of the method: as §1

G401 = system: G401
Summary of the method: as §1

COc1cc2nccc(Oc3ccc(NC(=O)C4(C(=O)Nc5ccc(F)cc5)CC4)cc3)c2cc1OC [Cabozantinib]
Details	relative viability
A204, 0.00017 µM	1.04
A204, 0.00051 µM	1.1
A204, 0.00152 µM	1.06
A204, 0.00457 µM	1.06
A204, 0.01372 µM	0.9735
A204, 0.04115 µM	0.785
A204, 0.1235 µM	0.428
A204, 0.3704 µM	0.378
A204, 1.111 µM	0.341
A204, 3.333 µM	0.312
A204, 10 µM	0.229
G401, 0.00017 µM	1.08
G401, 0.00051 µM	1.05
G401, 0.00152 µM	1.02
G401, 0.00457 µM	1.06
G401, 0.01372 µM	1.05
G401, 0.04115 µM	0.997
G401, 0.1235 µM	0.969
G401, 0.3704 µM	0.858
G401, 1.111 µM	0.804
G401, 3.333 µM	0.514
G401, 10 µM	0.215
HS729, 0.00017 µM	1.1
HS729, 0.00051 µM	0.966
HS729, 0.00152 µM	0.973
HS729, 0.00457 µM	0.928
HS729, 0.01372 µM	0.9662
HS729, 0.04115 µM	0.897
HS729, 0.1235 µM	0.83
HS729, 0.3704 µM	0.749
HS729, 1.111 µM	0.64
HS729, 3.333 µM	0.504
HS729, 10 µM	0.288
HT1080, 0.00017 µM	1.06
HT1080, 0.00051 µM	1.06
HT1080, 0.00152 µM	1.07
HT1080, 0.00457 µM	1.07
HT1080, 0.01372 µM	1.05
HT1080, 0.04115 µM	1.04
HT1080, 0.1235 µM	1.06
HT1080, 0.3704 µM	1.06
HT1080, 1.111 µM	1.07
HT1080, 3.333 µM	0.962
HT1080, 10 µM	0.482
KHOS-NP, 0.00017 µM	1.07
KHOS-NP, 0.00051 µM	1.09
KHOS-NP, 0.00152 µM	1.1
KHOS-NP, 0.00457 µM	1.06
KHOS-NP, 0.01372 µM	1.09
KHOS-NP, 0.04115 µM	1.07
KHOS-NP, 0.1235 µM	1.08
KHOS-NP, 0.3704 µM	1.07
KHOS-NP, 1.111 µM	1.04
KHOS-NP, 3.333 µM	0.924
KHOS-NP, 10 µM	0.586
MES-SA, 0.00017 µM	0.994
MES-SA, 0.00051 µM	0.953
MES-SA, 0.00152 µM	0.947
MES-SA, 0.00457 µM	0.948
MES-SA, 0.01372 µM	0.934
MES-SA, 0.04115 µM	0.929
MES-SA, 0.1235 µM	0.912
MES-SA, 0.3704 µM	0.89
MES-SA, 1.111 µM	0.807
MES-SA, 3.333 µM	0.262
MES-SA, 10 µM	0.163
SK-LMS-1, 0.00017 µM	1.13
SK-LMS-1, 0.00051 µM	1.13
SK-LMS-1, 0.00152 µM	1.133
SK-LMS-1, 0.00457 µM	1.13
SK-LMS-1, 0.01372 µM	1.09
SK-LMS-1, 0.04115 µM	0.982
SK-LMS-1, 0.1235 µM	0.599
SK-LMS-1, 0.3704 µM	0.379
SK-LMS-1, 1.111 µM	0.339
SK-LMS-1, 3.333 µM	0.205
SK-LMS-1, 10 µM	0.11
SW684, 0.00017 µM	1.17
SW684, 0.00051 µM	1.19
SW684, 0.00152 µM	1.2
SW684, 0.00457 µM	1.2
SW684, 0.01372 µM	1.21
SW684, 0.04115 µM	1.121
SW684, 0.1235 µM	0.945
SW684, 0.3704 µM	0.848
SW684, 1.111 µM	0.852
SW684, 3.333 µM	0.652
SW684, 10 µM	0.38
SW872, 0.00017 µM	1.08
SW872, 0.00051 µM	1.1
SW872, 0.00152 µM	1.08
SW872, 0.00457 µM	1.11
SW872, 0.01372 µM	1.06
SW872, 0.04115 µM	1.05
SW872, 0.1235 µM	1.06
SW872, 0.3704 µM	1.01
SW872, 1.111 µM	0.931
SW872, 3.333 µM	0.626
SW872, 10 µM	0.4
SW1353, 0.00017 µM	1.05
SW1353, 0.00051 µM	1.02
SW1353, 0.00152 µM	1.04
SW1353, 0.00457 µM	0.987
SW1353, 0.01372 µM	1.01
SW1353, 0.04115 µM	1.01
SW1353, 0.1235 µM	0.904
SW1353, 0.3704 µM	0.8127
SW1353, 1.111 µM	0.783
SW1353, 3.333 µM	0.54
SW1353, 10 µM	0.317
SYO-1, 0.00017 µM	1
SYO-1, 0.00051 µM	1
SYO-1, 0.00152 µM	0.974
SYO-1, 0.00457 µM	0.91
SYO-1, 0.01372 µM	0.915
SYO-1, 0.04115 µM	0.751
SYO-1, 0.1235 µM	0.708
SYO-1, 0.3704 µM	0.627
SYO-1, 1.111 µM	0.451
SYO-1, 3.333 µM	0.322
SYO-1, 10 µM	0.129
VA-ES-BJ, 0.00017 µM	1.07
VA-ES-BJ, 0.00051 µM	1.06
VA-ES-BJ, 0.00152 µM	1.04
VA-ES-BJ, 0.00457 µM	1
VA-ES-BJ, 0.01372 µM	1.04
VA-ES-BJ, 0.04115 µM	1.03
VA-ES-BJ, 0.1235 µM	0.9802
VA-ES-BJ, 0.3704 µM	0.971
VA-ES-BJ, 1.111 µM	0.91
VA-ES-BJ, 3.333 µM	0.68
VA-ES-BJ, 10 µM	0.266
